A value given as a limit tells only on which side of the number the result lay.

Four compounds from article PMC6352937, “Inhibition of protein phosphatase-1 and -2A by ellagitannins: structure-inhibitory potency relationships and influences on cellular systems” (Journal of Enzyme Inhibition and Medicinal Chemistry, 2019) can be followed below.

The subject of one assay is HeLa lysate. Briefly: Phosphatase activity of HeLa cell lysate (32P-MLC20). Format: biochemical, human. The conditions noted are these: HeLa lysate in 300-fold dilution; 1 µM 32P-MLC20; mean ± SD. The procedure: (§1) Protein phosphatase activity of either skeletal muscle PP1c or PP2Ac (1.9–2.2 nM), or rPP1cα or rPP1cδ (2.71–3.72 nM), or FLAG-MYPT1-PP1c (∼9 nM) was assayed at 30 °C in absence or presence of polyphenol compounds (0.1–100 µM) in 20 mM Tris/HCl (pH 7.4), 0.1% 2-mercaptoethanol (30 µL). The purified phosphatase samples or HeLa lysates in 300-fold dilution (1.8–3.6 µg/ml) in the presence or absence of 2 µM I2 were preincubated with increasing concentration of the polyphenol compounds (0–100 µM) for 10 min then the reaction was started by the addition of 1 µM ^32P-MLC20 and incubated for 10 min. Polyphenol-treated HeLa cells were washed then lysed in 50 mM Tris/HCl (pH 8.0), 150 mM NaCl, 1% (V/V) Triton X-100, 0.15% (w/v) protease inhibitor cocktail. The phosphatase activity was assayed with 1 µM ^32P-MLC20 for 30 s in 3-fold final dilution (0.24–0.43 mg/ml). The reactions were terminated by the addition of 200 µL of 10% trichloroacetic acid and 200 µL of 6 mg/mL BSA solution. The samples were centrifuged for 3 min at 10,000 rpm and the supernatants (370 µL) were transferred into scintillation vials and the radioactivity of the released ^32Pi was determined in Tri-Carb 2800TR scintillation counter.
(§2) The ellagitannins (Figure 1) assayed on the activity of PP1c or PP2Ac in this study are similar to PGG in composition, but they differ structurally in two important aspects: (i) all of them include hexahydroxydiphenoyl unit linked in various positions, except for pedunculagin which includes two of these linkages; (ii) tellimagrandin I, pedunculagin, and praecoxin B have free glycosidic hydroxyls, while GHG has an unmodified hydroxyl at position 3 of the glucopyranose ring. […] Inhibition of the phosphatase activity by ellagitannins in HeLa cell lysate was also assessed. First, we determined the activity of PP1 and PP2A in the lysates using I2 to inhibit PP1, and low concentration of OA (2 nM) to suppress PP2A specifically, in order to determine the contribution of PP1 and PP2A to the phosphatase activity of lysates (Figure 2(E)).
(§3) Figure 2. The effect of ellagitannins on the activity of PP1 and PP2A. Ellagitannins (0.1–100 µM) were preincubated with the phosphatase samples for 10 min and the phosphatase activity was determined in triplicates with 1 µM ^32P-MLC20 substrate as described in “Materials and methods” section. […] The effect of tellimagrandin I on the activity of rPP1cα (^) and rPP1cδ (●) (C), or FLAG-MYPT1-PP1cδ (▼) (D), or on the phosphatase activity of HeLa lysate in the presence of I2 (□) (F). The effect of I2 and OA on the phosphatase activity of HeLa lysate (E). Phosphatase activity in the absence of ellagitannins, I2 or OA was taken as 100%. Data are means ± SD (n = 3–5).

The subject of assay [1] is HeLa cells. The assay is described as follows: HeLa cell viability, Alamar-blue assay. Format: cell-based, human. Conditions: 24 h incubation, serum free; 0-50 µM tested. The procedure: HeLa cells and tsa201 cells were cultured as recommended by the supplier. Prior to treatments HeLa cells were serum starved in MEM medium supplemented with 2 mM L-glutamine for 17 h. For phosphatase activity assay cells were treated with increasing concentration of polyphenol compounds (1–50 µM) for 1 h. To assess cell viability by Alamar-blue assay serum starved cells were treated with ellagitannins (1–50 µM) for 24 h in serum free MEM medium. The media was exchanged for resazurin (20 µM) containing serum free media and the cells were incubated for 2 h to enhance resorufin formation by the viable cells. The emission of resorufin was measured by a fluorimeter at 620 nm.
Figure 4. Distinct influence of ellagitannins on the survival and phosphatase activity of HeLa cells. The effect of tellimagrandin I and mahtabin A was assayed on the survival (A) and the phosphatase activity (B) of HeLa cells in 0–50 µM concentration range as detailed in Materials and methods. The cell survival and the phosphatase activity in the absence of ellagitannins were taken as 100%. Data represent means ± SD (n = 3). ANOVA *p < .05, **p < .01, ***p < .001, n.s.: not significant.
On the technique in general: Resazurin is reduced to fluorescent resorufin, in cell work by metabolically active cells.

In assay [2] the test system is mouse cortical synaptosomes. The assay is described as follows: KCl induced exocytosis of cortical synaptosomes (FM 2-10 dye). The format is cell-based. Conditions: 30 mM KCl; FM 2-10 fluorescence; 45 min treatment. The procedure: (§4) Preparation of synaptosomes from murine brain cortex was carried out as described previously. Functional synaptosomes were kept in Krebs buffer (118 mM NaCl, 5 mM KCl, 25 mM NaHCO3, 1 mM MgCl2, 10 mM D-glucose, pH 7.4). After preparation, synaptosomes were treated with either tellimagrandin I or mahtabin A in 1, 10 or 100 µM final concentrations, or with 10 µM tautomycetin (TMC) for 45 min at 30 °C. After the treatments synaptosomes were applied for exocytosis assay or were lysed and the protein lysates were subjected to Western blot. For exocytosis assay an already established protocol[25] was used. FM 2–10 water-soluble styryl dye was incorporated first into the outer leaflet of synaptosome membrane, then into the synaptosomes. Exocytosis was induced by addition of 30 mM KCl to the synaptosomes. The fluorescent intensity of FM 2–10 styryl dye negatively correlated with the extent of synatposomal exocytosis and was measured by Fluoroskan FL (excitation: 488 nm, emission: 540 nm). Western blot of synaptosome proteins was carried out as described previously[24]^,[25].
Figure 5. […] E: Representative Western blot with anti- SNAP-25^pThr138 specific antibody. F: Relative changes in the amount of SNAP-25^pThr138 determined by densitometry of the Western blots normalised on the bands obtained for the loading controls. Data are means ± SD (n = 3). […]

A further assay deals with PP1c. Briefly: Protein phosphatase assay with 32P-MLC20, native PP1c. Format: biochemical. The conditions noted are these: native PP1c from rabbit skeletal muscle; 1 µM 32P-MLC20; 10 min preincubation; mean ± SD. How it is done: as §1, §2, §3
The subject of assay [3] is HeLa cells. Briefly: Phosphatase activity of polyphenol-treated HeLa cells. Conditions: 1 h incubation; 0-50 µM tested. Format: cell-based, human. The procedure: as §1
HeLa cells and tsa201 cells were cultured as recommended by the supplier. […] The emission of resorufin was measured by a fluorimeter at 620 nm. […]

In a further assay the test system is SNAP-25^Thr138. Briefly: Phosphorylation of SNAP-25 Thr138 in cortical synaptosomes (Western blot). Conditions: synaptosomes treated 45 min at 30 °C; ellagitannins 1-100 µM, TMC 10 µM. Format: cell-based, mouse. How it is done: as §4
Figure 5. […] E: Representative Western blot with anti- SNAP-25^pThr138 specific antibody. F: Relative changes in the amount of SNAP-25^pThr138 determined by densitometry of the Western blots normalised on the bands obtained for the loading controls. Data are means ± SD (n = 3). ANOVA *p < .05, **p < .01, ***p < .001, n.s.: not significant.

A further assay has as its target PP2Ac. Briefly: Protein phosphatase assay with 32P-MLC20, native PP2Ac. Format: biochemical. Conditions: native PP2Ac from rabbit skeletal muscle; 1 µM 32P-MLC20; 10 min preincubation; mean ± SD. How it is done:
as §1, §2, §3

The next assay addresses T1, rPP1cα (Homo sapiens, UniProt P62136).
T1 construct: FLAG; made in house
Briefly: Microscale thermophoresis (MST). The format is binding. Conditions: unlabelled rPP1cα, intrinsic fluorescence (NT.LabelFree). How it is done:
Figure 3. […] The changes in either, the intrinsic fluorescence of unlabelled rPP1cα upon binding to tellimagrandin I and PGG, or changes in fluorescent signal from rPP1cα extrinsically labelled with NT647 dye upon binding with EGCG, were determined at a range of concentration of polyphenols, and the fractions bound are presented. Data points are means ± SD (n = 3).

T1 sequence (P62136 whole entry): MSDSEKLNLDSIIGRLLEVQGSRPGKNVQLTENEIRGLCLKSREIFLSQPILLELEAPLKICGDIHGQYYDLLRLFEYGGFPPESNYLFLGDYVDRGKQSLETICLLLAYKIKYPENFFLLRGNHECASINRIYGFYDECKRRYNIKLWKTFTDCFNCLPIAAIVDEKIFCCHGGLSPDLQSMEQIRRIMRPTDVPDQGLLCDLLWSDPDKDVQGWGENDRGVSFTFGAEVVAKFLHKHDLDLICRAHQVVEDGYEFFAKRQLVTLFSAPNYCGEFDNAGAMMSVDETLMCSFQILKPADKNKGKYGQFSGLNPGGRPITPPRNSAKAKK

In general, IC50 refers to the midpoint of a concentration-inhibition curve. Consider `O=C(OC[C@H]1O[C@@H](OC(=O)c2cc(O)c(O)c(O)c2)[C@@H]2OC(=O)c3cc(O)c(O)c(O)c3-c3c(cc(O)c(O)c3O)C(=O)O[C@H]2[C@@H]1OC(=O)c1cc(O)c(O)c(O)c1)c1cc(O)c(O)c(O)c1` [mahtabin A], for which the IC50 in the assay with HeLa lysate came out at 6.19 ± 0.37 µM; against PP1c it was 0.41 ± 0.18 µM; at PP2Ac, 33.8 ± 8.44 µM. Also, the “Effect on viability (survival) of HeLa cells” value with HeLa cells [1] is on record as “without effect”. Besides, the “Effect on KCl induced synaptosomal exocytosis” value in assay [2] was “suppressed exocytosis”. In the assay with HeLa cells [3], the “Effect on phosphatase activity of HeLa cells” value is “without effect”. Further, in the assay with SNAP-25^Thr138, the “Effect on phosphorylation level of SNAP-25^Thr138” value is on record as “increased the amount of phosphorylated SNAP-25^Thr138”.

As to `O=C(OC[C@H]1OC(O)[C@@H]2OC(=O)c3cc(O)c(O)c(O)c3-c3c(cc(O)c(O)c3O)C(=O)O[C@H]2[C@@H]1OC(=O)c1cc(O)c(O)c(O)c1)c1cc(O)c(O)c(O)c1` (some centres unmarked) [praecoxin B], the half-inhibitory concentration (IC50) with HeLa lysate was 6.97 ± 1.12 µM; against PP1c it was 0.79 ± 0.11 µM; on PP2Ac it was 63.9 ± 5.52 µM.

Take `O=C1OC[C@H]2OC(O)[C@@H]3OC(=O)c4cc(O)c(O)c(O)c4-c4c(cc(O)c(O)c4O)C(=O)O[C@H]3[C@@H]2OC(=O)c2cc(O)c(O)c(O)c2-c2c1cc(O)c(O)c2O` (some centres unmarked) [pedunculagin]: the IC50 was 33.9 ± 4.54 µM in the assay on HeLa lysate, ~2.47 µM at PP1c and > 100 µM on PP2Ac.

What is called Kd is the free concentration of one partner at which half of the binding sites on the other are occupied at equilibrium, for simple one-to-one binding. A lower Kd goes with a tighter complex. Regarding `O=C(OC[C@H]1O[C@@H](OC(=O)c2cc(O)c(O)c(O)c2)[C@H](OC(=O)c2cc(O)c(O)c(O)c2)[C@@H](OC(=O)c2cc(O)c(O)c(O)c2)[C@@H]1OC(=O)c1cc(O)c(O)c(O)c1)c1cc(O)c(O)c(O)c1` [PGG, penta-O-galloyl-β-D-glucose], binding at rPP1cα was characterised by a dissociation constant (Kd) of 3.08 ± 0.35 µM.
